For one molecule, IC50 results are on record in BindingDB's records for doi:10.1016/j.bmcl.2017.04.089 (Mcdaniel College, 2017).

The assay has as its target Protein mono-ADP-ribosyltransferase PARP14 (Homo sapiens, UniProt Q460N5). The assay is described as follows: Inhibition of recombinant human His6-tagged PARP14 catalytic/WWE domain (1459 to 1801 residues) expressed in Escherichia coli BL21(DE3) preincubated for 15 mins followed by biotinylated NAD+ addition by chemiluminescence assay.

Molecules are shown by their SMILES.

Protein mono-ADP-ribosyltransferase PARP14, sequence (Q460N5 whole entry, the tested form may be a part): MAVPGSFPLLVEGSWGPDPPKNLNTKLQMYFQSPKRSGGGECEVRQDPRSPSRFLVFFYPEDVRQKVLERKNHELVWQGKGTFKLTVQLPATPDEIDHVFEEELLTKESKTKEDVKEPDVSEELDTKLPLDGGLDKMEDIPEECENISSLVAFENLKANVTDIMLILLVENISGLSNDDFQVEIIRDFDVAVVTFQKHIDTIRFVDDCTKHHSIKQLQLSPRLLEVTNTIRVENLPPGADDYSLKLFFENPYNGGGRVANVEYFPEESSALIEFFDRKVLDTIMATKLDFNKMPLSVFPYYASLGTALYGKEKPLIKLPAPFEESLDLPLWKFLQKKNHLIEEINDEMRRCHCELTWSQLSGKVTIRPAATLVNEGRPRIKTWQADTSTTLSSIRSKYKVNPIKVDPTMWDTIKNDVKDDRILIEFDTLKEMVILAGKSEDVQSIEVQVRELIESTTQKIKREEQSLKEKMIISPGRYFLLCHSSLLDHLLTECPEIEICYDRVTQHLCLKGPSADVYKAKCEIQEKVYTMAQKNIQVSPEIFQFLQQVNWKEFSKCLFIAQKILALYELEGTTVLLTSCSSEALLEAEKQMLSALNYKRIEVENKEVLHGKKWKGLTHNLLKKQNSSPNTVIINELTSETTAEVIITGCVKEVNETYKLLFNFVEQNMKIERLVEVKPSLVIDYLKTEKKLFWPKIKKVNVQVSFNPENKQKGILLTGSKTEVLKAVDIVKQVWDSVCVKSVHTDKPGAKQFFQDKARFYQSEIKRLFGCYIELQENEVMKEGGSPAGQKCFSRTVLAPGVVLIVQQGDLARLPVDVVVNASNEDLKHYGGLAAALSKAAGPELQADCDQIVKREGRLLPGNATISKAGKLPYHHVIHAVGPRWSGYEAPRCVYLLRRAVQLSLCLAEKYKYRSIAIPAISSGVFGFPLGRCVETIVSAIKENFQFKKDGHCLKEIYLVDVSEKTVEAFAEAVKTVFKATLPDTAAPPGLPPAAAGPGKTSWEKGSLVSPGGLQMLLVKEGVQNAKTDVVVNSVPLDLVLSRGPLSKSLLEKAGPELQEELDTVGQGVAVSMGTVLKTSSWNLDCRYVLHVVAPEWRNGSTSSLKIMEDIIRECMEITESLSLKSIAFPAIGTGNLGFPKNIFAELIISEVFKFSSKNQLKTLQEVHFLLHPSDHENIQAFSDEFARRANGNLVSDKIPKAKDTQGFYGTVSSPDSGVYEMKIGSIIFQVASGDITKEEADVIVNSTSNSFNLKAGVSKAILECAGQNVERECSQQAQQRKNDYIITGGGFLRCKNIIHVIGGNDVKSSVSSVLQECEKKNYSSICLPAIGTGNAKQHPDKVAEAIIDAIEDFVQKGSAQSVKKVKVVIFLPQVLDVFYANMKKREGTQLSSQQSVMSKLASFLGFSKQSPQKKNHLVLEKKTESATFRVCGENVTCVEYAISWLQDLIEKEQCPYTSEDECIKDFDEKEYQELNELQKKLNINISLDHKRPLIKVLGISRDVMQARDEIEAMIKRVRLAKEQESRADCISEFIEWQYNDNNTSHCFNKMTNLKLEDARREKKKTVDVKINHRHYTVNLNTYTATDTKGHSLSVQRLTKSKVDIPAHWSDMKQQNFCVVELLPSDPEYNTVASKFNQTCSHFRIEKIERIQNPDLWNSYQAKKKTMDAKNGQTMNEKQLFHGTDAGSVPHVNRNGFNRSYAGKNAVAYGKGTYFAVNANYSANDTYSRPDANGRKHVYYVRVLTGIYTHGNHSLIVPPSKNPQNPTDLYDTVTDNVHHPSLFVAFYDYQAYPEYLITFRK

For the molecule `NC(=O)c1cccc(NC(=O)/C=C\C(=O)N2CCCC(Oc3ccccc3)C2)c1` (stereo unspecified), the IC50 worked out at 1020 nM.
